Results: PMC7093416, “Selective USP7 inhibition elicits cancer cell killing through a p53-dependent mechanism” (Scientific Reports, 2020)

Tested on: panel of 484 cancer cell lines
Test: PRISM cancer cell line profiling, 5 days
Assay type: cell-based
Set-up: AUC: unit not given beside the values
Method: Cancer cell line profiling was performed using the Broad’s PRISM platform. Cell treatment and data analysis were performed as described in Yu et al[42]. Raw Luminex signal was converted to AUC values for each cell line as described. The resulting AUC profile for each compound was modeled against DepMap using the limma package in R[71]. Because hotspot mutation analysis was performed against DepMap, TP53 annotations in Fig. 6c,d are directly from DepMap.

## CN1CCN(CCC(=O)Nc2ccc3c(=O)n(CC4(O)CCN(C(=O)[C@@H](CCCNC(=O)c5ccc6c(Cl)c7c(nc6c5)CCCC7)Cc5ccccc5)CC4)cnc3c2)CC1 [XL177A]
MG63_BONE
  AUC: 1.147
MHHES1_BONE
  AUC: 0.9854
MIAPACA2_PANCREAS
  AUC: 0.7815
MKN1_STOMACH
  AUC: 1.271
MKN7_STOMACH
  AUC: 0.8494
MKN45_STOMACH
  AUC: 0.5723
MKN74_STOMACH
  AUC: 0.9306
MON_SOFT_TISSUE
  AUC: 0.2802
MPP89_PLEURA
  AUC: 1.207
MSTO211H_PLEURA
  AUC: 0.9069
NB1_AUTONOMIC_GANGLIA
  AUC: 0.8293
NCIH23_LUNG
  AUC: 0.7147
NCIH28_PLEURA
  AUC: 1.117
NCIH226_LUNG
  AUC: 0.8849
NCIH292_LUNG
  AUC: 1.012
NCIH322_LUNG
  AUC: 0.9977
NCIH358_LUNG
  AUC: 0.842
NCIH446_LUNG
  AUC: 1.125
NCIH460_LUNG
  AUC: 1.082
NCIH520_LUNG
  AUC: 1.357
NCIH522_LUNG
  AUC: 0.9146
NCIH596_LUNG
  AUC: 0.8559
NCIH650_LUNG
  AUC: 0.8175
NCIH661_LUNG
  AUC: 1.081
NCIH727_LUNG
  AUC: 1.196
NCIH747_LARGE_INTESTINE
  AUC: 0.9621
NCIH838_LUNG
  AUC: 0.9473
NCIH841_LUNG
  AUC: 0.967
NCIH1048_LUNG
  AUC: 1.077
NCIH1299_LUNG
  AUC: 1.101
NCIH1339_LUNG
  AUC: 0.9923
NCIH1355_LUNG
  AUC: 0.948
NCIH1373_LUNG
  AUC: 0.8577
NCIH1435_LUNG
  AUC: 1.156
NCIH1437_LUNG
  AUC: 0.9262
NCIH1563_LUNG
  AUC: 0.7202
NCIH1568_LUNG
  AUC: 0.8953
NCIH1573_LUNG
  AUC: 1.235
NCIH1581_LUNG
  AUC: 0.9829
NCIH1623_LUNG
  AUC: 0.9673
NCIH1648_LUNG
  AUC: 0.9409
NCIH1650_LUNG
  AUC: 0.8271
NCIH1651_LUNG
  AUC: 1.042
NCIH1693_LUNG
  AUC: 0.9884
NCIH1703_LUNG
  AUC: 1.041
NCIH1792_LUNG
  AUC: 1.0161
NCIH1793_LUNG
  AUC: 1.096
NCIH1838_LUNG
  AUC: 0.9778
NCIH1915_LUNG
  AUC: 0.9037
NCIH1944_LUNG
  AUC: 0.9736
NCIH1975_LUNG
  AUC: 0.923
NCIH2009_LUNG
  AUC: 0.7912
NCIH2023_LUNG
  AUC: 1.0442
NCIH2030_LUNG
  AUC: 1.09
NCIH2052_PLEURA
  AUC: 0.7196
NCIH2077_LUNG
  AUC: 1.06
NCIH2087_LUNG
  AUC: 0.9147
NCIH2110_LUNG
  AUC: 1.049
NCIH2122_LUNG
  AUC: 0.751
NCIH2126_LUNG
  AUC: 0.9474
NCIH2170_LUNG
  AUC: 1.032
NCIH2172_LUNG
  AUC: 1.068
NCIH2228_LUNG
  AUC: 0.9446
NCIH2347_LUNG
  AUC: 0.9414
NCIH2444_LUNG
  AUC: 0.981
NCIH2452_PLEURA
  AUC: 1.231
NCIN87_STOMACH
  AUC: 1.289
NUGC3_STOMACH
  AUC: 0.9146
NUGC4_STOMACH
  AUC: 0.8113
OAW42_OVARY
  AUC: 0.9061
OC314_OVARY
  AUC: 1.051
OC316_OVARY
  AUC: 1.076
OE19_OESOPHAGUS
  AUC: 1.108
OE21_OESOPHAGUS
  AUC: 0.9739
OE33_OESOPHAGUS
  AUC: 1.005
ONCODG1_OVARY
  AUC: 0.9121
ONS76_CENTRAL_NERVOUS_SYSTEM
  AUC: 0.7482
OSRC2_KIDNEY
  AUC: 0.9599
OUMS23_LARGE_INTESTINE
  AUC: 0.9942
OV56_OVARY
  AUC: 0.9082
OVCAR8_OVARY
  AUC: 1.07
OVISE_OVARY
  AUC: 0.8469
OVK18_OVARY
  AUC: 0.8349
OVSAHO_OVARY
  AUC: 0.9469
OVTOKO_OVARY
  AUC: 1.103
PANC1_PANCREAS
  AUC: 0.8692
PANC0203_PANCREAS
  AUC: 0.8971
PANC0327_PANCREAS
  AUC: 1.196
PANC0403_PANCREAS
  AUC: 1
PANC0813_PANCREAS
  AUC: 0.9365
PANC1005_PANCREAS
  AUC: 1.142
PATU8902_PANCREAS
  AUC: 1.125
PATU8988S_PANCREAS
  AUC: 1.237
PATU8988T_PANCREAS
  AUC: 0.9888
PC3_PROSTATE
  AUC: 0.9272
PC14_LUNG
  AUC: 0.8983
PECAPJ15_UPPER_AERODIGESTIVE_TRACT
  AUC: 0.8461
PECAPJ41CLONED2_UPPER_AERODIGESTIVE_TRACT
  AUC: 0.7551
PECAPJ49_UPPER_AERODIGESTIVE_TRACT
  AUC: 0.693
PK1_PANCREAS
  AUC: 1.009
PK45H_PANCREAS
  AUC: 1.081
PK59_PANCREAS
  AUC: 1.041
PLCPRF5_LIVER
  AUC: 1.069
PSN1_PANCREAS
  AUC: 0.9727
QGP1_PANCREAS
  AUC: 1.095
RCC10RGB_KIDNEY
  AUC: 1.14
RCM1_LARGE_INTESTINE
  AUC: 1.19
RD_SOFT_TISSUE
  AUC: 0.8902
RERFLCAD1_LUNG
  AUC: 1.191
RERFLCAD2_LUNG
  AUC: 1.139
RERFLCAI_LUNG
  AUC: 0.8829
RERFLCKJ_LUNG
  AUC: 0.8002
RERFLCMS_LUNG
  AUC: 1.045
RH30_SOFT_TISSUE
  AUC: 0.9309
RKN_SOFT_TISSUE
  AUC: 0.8534
RKO_LARGE_INTESTINE
  AUC: 0.7552
RL952_ENDOMETRIUM
  AUC: 0.9781
RMGI_OVARY
  AUC: 0.9543
RMUGS_OVARY
  AUC: 0.8888
RT4_URINARY_TRACT
  AUC: 1.356
RT112_URINARY_TRACT
  AUC: 1.227
